Test results as given in the NIST ThermoML archive (doi:10.1016/j.fluid.2009.06.008).
Numbers after ± are expanded uncertainties.

Assay: mn = molality of the nth substance listed, in mol/kg
Details: 101 kPa, Liquid; for viscosity: Capillary tube (Ostwald / Ubbelohde) method; for mass density: Vibrating tube method

O=C[C@H](O)[C@@H](O)[C@H](O)[C@H](O)CO [D-glucose] + O
Details | mass density [kg/m3] | viscosity [mPa·s]
278.15 K, m1 = 0.2 | 1019.65 ± 0.074 | 1.694 ± 0.016
278.15 K, m1 = 0.4 | 1031.6 ± 0.078 | 1.873 ± 0.018
278.15 K, m1 = 0.6 | 1043.55 ± 0.082 | 2.074 ± 0.02
278.15 K, m1 = 0.8 | 1055.51 ± 0.087 | 2.3 ± 0.022
278.15 K, m1 = 1 | 1067.46 ± 0.092 | 2.536 ± 0.024
278.15 K, m1 = 1.2 | 1079.41 ± 0.098 | 2.802 ± 0.027
283.15 K, m1 = 0.2 | 1017.74 ± 0.074 | 1.451 ± 0.014
283.15 K, m1 = 0.4 | 1029.58 ± 0.077 | 1.599 ± 0.015
283.15 K, m1 = 0.6 | 1041.42 ± 0.081 | 1.766 ± 0.017
283.15 K, m1 = 0.8 | 1053.25 ± 0.086 | 1.953 ± 0.019
283.15 K, m1 = 1 | 1065.09 ± 0.091 | 2.147 ± 0.021
283.15 K, m1 = 1.2 | 1076.93 ± 0.097 | 2.374 ± 0.023
288.15 K, m1 = 0.2 | 1015.54 ± 0.073 | 1.258 ± 0.012
288.15 K, m1 = 0.4 | 1027.28 ± 0.076 | 1.383 ± 0.013
288.15 K, m1 = 0.6 | 1039.02 ± 0.08 | 1.524 ± 0.014
288.15 K, m1 = 0.8 | 1050.75 ± 0.085 | 1.682 ± 0.016
288.15 K, m1 = 1 | 1062.49 ± 0.09 | 1.849 ± 0.017
288.15 K, m1 = 1.2 | 1074.22 ± 0.096 | 2.029 ± 0.019
293.15 K, m1 = 0.2 | 1013.09 ± 0.072 | 1.104 ± 0.01
293.15 K, m1 = 0.4 | 1024.74 ± 0.075 | 1.21 ± 0.011
293.15 K, m1 = 0.6 | 1036.38 ± 0.079 | 1.329 ± 0.012
293.15 K, m1 = 0.8 | 1048.03 ± 0.084 | 1.46 ± 0.014
293.15 K, m1 = 1 | 1059.67 ± 0.089 | 1.619 ± 0.015
293.15 K, m1 = 1.2 | 1071.32 ± 0.095 | 1.754 ± 0.016
298.15 K, m1 = 0.2 | 1010.39 ± 0.077 | 0.9748 ± 0.0087
298.15 K, m1 = 0.4 | 1023.11 ± 0.078 | 1.066 ± 0.0096
298.15 K, m1 = 0.6 | 1035.26 ± 0.08 | 1.166 ± 0.011
298.15 K, m1 = 0.8 | 1046.85 ± 0.083 | 1.272 ± 0.012
298.15 K, m1 = 1 | 1057.94 ± 0.086 | 1.395 ± 0.013
298.15 K, m1 = 1.2 | 1068.55 ± 0.09 | 1.528 ± 0.014
303.15 K, m1 = 0.2 | – | 0.8685 ± 0.0077
303.15 K, m1 = 0.4 | 1018.93 ± 0.074 | 0.9469 ± 0.0084
303.15 K, m1 = 0.6 | 1030.42 ± 0.078 | 1.035 ± 0.0092
303.15 K, m1 = 0.8 | 1041.92 ± 0.083 | 1.132 ± 0.01
303.15 K, m1 = 1 | 1053.41 ± 0.087 | 1.236 ± 0.011
303.15 K, m1 = 1.2 | 1064.9 ± 0.093 | 1.343 ± 0.012
308.15 K, m1 = 0.2 | 1004.38 ± 0.07 | 0.7811 ± 0.007
308.15 K, m1 = 0.4 | 1015.81 ± 0.073 | 0.8496 ± 0.0075
308.15 K, m1 = 0.6 | 1027.24 ± 0.076 | 0.9264 ± 0.0083
308.15 K, m1 = 0.8 | 1038.67 ± 0.081 | 1.01 ± 0.0091
308.15 K, m1 = 1 | 1050.1 ± 0.086 | 1.096 ± 0.0099
308.15 K, m1 = 1.2 | 1061.53 ± 0.091 | 1.194 ± 0.011
